Experimental data from ChEMBL document CHEMBL3430912, “GSK Tres Cantos Anti-Kinetoplastid Screening (TCAKS) Data”.

Columns and labels:
Leishmania donovani [1] = assay: GSK_TCAKS: pIC50 Leishmania donovani viability assay using fluorescence intensity. Assay plates (1536-well) were prepared by adding 30nL per well of compound. For single shot assay, the final compound concentration was 5uM. […] Briefly, eGFP LdBOB axenic amastigotes were harvested, fixed and counted in a CASY cell counter (Roche-Applied Science). A final concentration of 1.5 * 10^5 cells per well were prepared in amastigote media containing 500 U/mL penicillin/streptomycin (Invitrogen) and 6uL was dispensed to each experimental well using a Multidrop Combi dispenser (Thermo Scientific). 6uL of assay media was dispensed to control columns used as reference for 100% compound response. Following incubation for 72 h at 37C, 5% CO2, 2 uL of resazurin was added to each well at a final concentration of 0.5 mM in phosphate buffered saline (PBS) with IGEPAL (Sigma-Aldrich), 0.05% (v/v).; format: functional, organism-based
Trypanosoma cruzi [2] = assay: (§1) GSK_TCAKS: pIC50 H2C9 Imaging: H9c2 Host Cardiomyocytes. […] Cells were then washed once with PBS before infection. T. cruzi trypomastigotes, collected at days 5 to 8 after infection from LLC-MK2 parasite infected cultures, were allowed to swim out for 4h at 37C from a centrifuged pellet (2,500 rpm/10 min/room temperature). Trypomastigotes were then collected and counted in a CASY Cell Counter. Trypomastigotes, in supplemented DMEM, were added to H9c2 cultures in a multiplicity of infection of 1 and incubated for 18 h. Cells were washed once with PBS before incubation of the infected H9c2 monolayer with trypsin (Life-Technologies) to detach cells from the flask. Cells were counted in a CASY Cell Counter using a 150 um capillary and their density set at 5 * 10^4 cells per mL in supplemented assay DMEM. Infected H9c2 were dispensed into 384-well poly-lysine coated assay plates at 50uL per well using a Multidrop Combi dispenser. After seeding them, the plates were incubated at 37C, 5% CO2 for 72h. Cultures were then fixed and stained by addition of 50 uL of a solution containing 8% formaldehyde and 4 uM DRAQ5 DNA dye (BioStatus, UK) per well. […] Five images were collected per well for reliable statistical analysis. Automated image analysis was performed with a script developed on Acapella High Content Imaging and Analysis Software (PerkinElmer). Output: Number of H9c2 Host Cardiomyocytes nuclei to determine drug-related cytotoxicity.; format: functional, organism-based, Rattus norvegicus; conditions: H9c2, 4 h
Trypanosoma cruzi [3] = assay: as §1, with “Trypanosoma cruzi” for “H2C9”, “Infected Cells.” for “H9c2 Host Cardiomyocytes.”, “percentage” for “Number”, “infected cells per well as a second infection marker.” for “H9c2 Host Cardiomyocytes nuclei to determine drug-related cytotoxicity.”; format: functional, organism-based, Rattus norvegicus; conditions: H9c2, 4 h
Leishmania donovani [4] = assay: (§2) GSK_TCAKS: pIC50 Leishmania donovani Imaging: Infected Macrophages. Assay plates (384-well) were prepared by adding 250nL of compound to each well. For single shot assay, the final compound concentration was 5 uM. […] Automated image analysis was performed with a script developed on Acapella High Content Imaging and Analysis Software (PerkinElmer). Output: Percent of infected macrophage cells were reported for each well.; format: functional, organism-based, Homo sapiens; conditions: THP-1
Leishmania donovani [5] = assay: as §2, with “Amastigotes/Macrophages.” for “Infected Macrophages.”, “Average number” for “Percent”, “amastigotes per” for “infected”, “cell” for “cells”; format: functional, organism-based, Homo sapiens; conditions: THP-1
Trypanosoma cruzi [6] = assay: as §1, with “Trypanosoma cruzi” for “H2C9”, “Amastigotes/Cell.” for “H9c2 Host Cardiomyocytes.”, “number” for “Number”, “amastigotes per cell as infection level measurement.” for “H9c2 Host Cardiomyocytes nuclei to determine drug-related cytotoxicity.”; format: functional, organism-based, Rattus norvegicus; conditions: H9c2, 4 h
[7] = biological target: Sterol 14-alpha demethylase (Trypanosoma cruzi (strain CL Brener), UniProt Q7Z1V1); assay: GSK_TCAKS: pIC50 CYP51 from Trypanosoma cruzi.; format: functional
Sterol 14-alpha demethylase, sequence (Q7Z1V1 whole entry): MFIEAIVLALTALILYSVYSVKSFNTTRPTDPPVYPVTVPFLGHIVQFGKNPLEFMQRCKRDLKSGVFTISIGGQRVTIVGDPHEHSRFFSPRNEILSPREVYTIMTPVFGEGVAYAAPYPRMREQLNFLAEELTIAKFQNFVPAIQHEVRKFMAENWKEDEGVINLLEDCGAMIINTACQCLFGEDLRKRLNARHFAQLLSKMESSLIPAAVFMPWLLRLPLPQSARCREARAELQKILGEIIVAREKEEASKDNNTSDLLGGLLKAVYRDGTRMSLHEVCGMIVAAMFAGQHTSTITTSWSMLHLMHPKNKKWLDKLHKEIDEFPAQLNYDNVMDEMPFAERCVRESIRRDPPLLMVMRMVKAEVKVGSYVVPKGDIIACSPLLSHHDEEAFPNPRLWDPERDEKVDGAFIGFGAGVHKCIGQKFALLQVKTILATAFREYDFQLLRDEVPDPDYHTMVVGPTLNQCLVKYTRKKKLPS

Trypanosoma cruzi [8] = assay: GSK_TCAKS: pIC50 Trypanosoma cruzi viability assay using beta-GAL activity. This assay was run at single shot at 5uM compound concentration per well. The biological reagents consisted of NIH-3T3 host cells and trypomastigotes parasitic cells; both cell types were set to a 3.3 * 10^5 cells/mL dilution in assay DMEM by means of a CASY cell counter device using a 60um capillary. 6 uL of the mixture were dispensed per well (about 1 * 10^3 host-cells and 1 * 10^3 parasites) with a Multidrop Combi dispenser. […] In all wells, the percentage of DMSO never exceeded 0.5%. Plates incubated for four days at 37C, 5% CO2. The substrate used for the assay fluorescence intensity (FLINT) readout was resorufin-beta-D-galactopiranoside (Sigma-Aldrich) at 5uM per well. It was diluted in PBS supplemented with the soft detergent Igepal (Fluka).; format: functional, organism-based, Mus musculus; conditions: Tulahuen, NIH3T3
[9] = test system: Trypanosoma brucei brucei; assay: GSK_TCAKS: pIC50 Trypanosoma brucei viability assay using luminiscence. Assay plates (1536-well) were prepared. T. brucei cultures were harvested and counted in a CASY cell counter. A parasite suspension was prepared at a final concentration of 5 * 10^4 cells/mL in complete HMI9 medium and 6uL was dispensed to all wells containing compounds using a Multidrop Combi dispenser. 6uL of HMI9 media with 0.4% DMSO were dispensed to control columns. Plates were incubated for 24 h at 37C, 5% CO2 then tempered for 10 min at room temperature. ATP content was quantified by adding 4 uL of CellTiter-Glo Reagent (Promega) according to the manufacturer's instructions. Luminescence was measured using a ViewLux.; format: functional, organism-based; conditions: Lister 427, CASY
[10] = test system: Trypanosoma brucei brucei; assay: GSK_TCAKS: pIC50 Trypanosoma brucei viability assay using fluorescence intensity. Assay plates (1536-well) were prepared by dispensing 25nL of compound solution per well using an Echo acoustic dispenser (Labcyte).; format: functional, organism-based; conditions: Lister 427, 2 h
Leishmania donovani [11] = assay: as §2, with “THP-1 Host” for “Infected”, “THP-1 cell count” for “Percent of infected macrophage cells”; format: functional, organism-based, Homo sapiens
[12] = GSK_TCAKS: pIC50 HepG2 human cell line viability assay using luminiscence. […] Seeding density was checked to ensure that new mono-layers were not more than 50% confluent at the time of harvesting. Cell suspension was added to 500 mL of the same medium at a final density of 1.2 * 10^5 cells/mL. This cell suspension was dispensed (25 uL, 3000 cells per well) into 384-well clear-bottom plates using a Multidrop Combi dispenser. Prior to addition of the cell suspension, the screening compounds (250 nL) were pre-dispensed into the plates with an Echo liquid handler. Plates were incubated for 48 h at 37C, 5% CO2. After incubation, plates equilibrated at room temperature for 30 min before proceeding to develop the luminescent signal. The signal developer, CellTiter-Glo Reagent, was allowed to equilibrate at room temperature for 30 min and added to the plates (25uL per well) using a Multidrop Combi dispenser. Plates were left for 10 min at room temperature for stabilization and then read using a ViewLux.; format: toxicity, cell-based

Structure (SMILES) | IC50 (Leishmania donovani [1]) | IC50 (Trypanosoma cruzi [2]) | IC50 (Trypanosoma cruzi [3]) | IC50 (Leishmania donovani [4]) | IC50 (Leishmania donovani [5]) | IC50 (Trypanosoma cruzi [6]) | IC50 [7] | IC50 (Trypanosoma cruzi [8]) | IC50 [9] | IC50 [10] | IC50 (Leishmania donovani [11]) | IC50 at 48 h [12]
COc1ccc(Nc2nc(N[C@H]3CC[C@H](O)CC3)ncc2Br)c(C(N)=O)c1 | 3.16 µM | 794 nM | 3.16 µM | 1000 nM | 631 nM | 2000 nM | 12.6 µM | 3.98 µM | 251 nM | 100 nM | 398 nM | > 100 µM
COc1ccc(OC)c(S(=O)(=O)N(Cc2c(F)cccc2F)[C@@H]2CCN(C#N)C2)c1 | 15.8 µM | 15800 nM | 12.6 µM | 25100 nM | 20000 nM | 6310 nM | > 100 µM | 6.31 µM | 794 nM | 631 nM | 20000 nM | 79.4 µM
COc1ccc2ncc(=O)n(CCN3CC[C@H](NCc4ncc(Cl)c5[nH]ncc45)[C@H](O)C3)c2n1 | > 50.1 µM | > 50100 nM | 3.16 µM | > 50100 nM | > 50100 nM | 1580 nM | > 100 µM | 3.98 µM | 501 nM | 316 nM | > 50100 nM | > 100 µM
NC(=O)c1ncccc1Nc1nc(N[C@H]2CC[C@H](O)CC2)ncc1Br | 1.26 µM | 631 nM | 2 µM | 1260 nM | 631 nM | 501 nM | > 100 µM | 1.58 µM | 631 nM | 316 nM | 398 nM | > 100 µM
CCc1cc(C(=O)Nc2nccn2-c2ccccc2)cs1 | 6.31 µM | 20000 nM | 5.01 µM | 12600 nM | 5010 nM | 3160 nM | > 100 µM | 3.16 µM | 3980 nM | 3160 nM | 31600 nM | > 100 µM
CC(C)c1cc(Nc2cc(Cc3ccccc3)nc(N[C@H]3CC[C@H](O)CC3)n2)n[nH]1 | 3.16 µM | 6.31 nM | 0.0794 µM | 63.1 nM | 39.8 nM | 31.6 nM | 20 µM | 0.0794 µM | 100 nM | 79.4 nM | 20 nM | 31.6 µM
CS(=O)(=O)N[C@H]1CC[C@H](Nc2ncc(Br)c(Nc3ccccc3C(N)=O)n2)CC1 | 1 µM | 501 nM | 5.01 µM | 2000 nM | 794 nM | 2000 nM | > 100 µM | 7.94 µM | 79.4 nM | 158 nM | 501 nM | > 100 µM
O=C1NCc2cccc(Nc3nc(N[C@H]4CC[C@H](O)CC4)ncc3Br)c21 | 0.794 µM | 100 nM | 1 µM | 158 nM | 126 nM | 398 nM | > 100 µM | 0.631 µM | 126 nM | 63.1 nM | 100 nM | > 100 µM
NS(=O)(=O)c1ccc(Nc2ncc3cccc(OC4CCNCC4)c3n2)cc1 | 39.8 µM | 631 nM | 0.0501 µM | 20000 nM | 15800 nM | 20 nM | > 100 µM | 1.78 µM | 316 nM | 200 nM | 1000 nM | > 100 µM
